Tests used:
Wiga Wistar rats = experiment: Reversal of LY-404039-induced decrease of palpebral opening in apomorphine-challenged rats; format: in vivo; details: Rattus norvegicus, PO, criterion: cumulative palpebral opening score >26, read-out: ED50 APO LY-404039
Description: B) In Vivo Pharmacology 1) Reversal of LY-404039-induced Decrease of Palpebral Opening in Apomorphine-challenged Rats.
Male Wiga Wistar rats (Crl:WI; Charles River Germany; 220±40 g) were housed under standard laboratory conditions (21±2° C.; 50-65% relative humidity; light-dark cycle set at 12 h; lights on at 6.00 h) and fasted overnight prior to the start of the experiments (tap water remained available ad libitum). During the test period, they were housed in individual cages. Palpebral opening was scored every 5 min over the first hour after injection of apomorphine (1.0 mg/kg, i.v.) in animals either pretreated or not pretreated with LY-404039 (2.5 mg/kg, s.c.) at 1 h prior to the apomorphine injection. The animals were also pretreated with test compound or solvent at a predefined interval before apomorphine challenge. The score system was: (5) exophthalmos, (4) wide open, (3) open for three-quarters, (2) half open, (1) open for one-quarter, (0) closed. The scores for palpebral opening were cumulated over the 60-min observation period. A cumulative palpebral opening score>26 was selected for drug-induced reversal of the LY-404039-induced decrease of palpebral opening (occurrence in 3.2% of control animals pretreated with LY-404039 (n=154) versus in 99.5% of control rats not pretreated with LY-404039 (n=6335)). […]

Induction of mydriasis = details: Wiga, rat, in vivo, PO, rats
Description: 3) Induction of Mydriasis
The pupil diameter of Wiga rats was measured with a microscopic micrometer (1 unit= 1/24 mm). Criteria for drug-induced effects: pupil diameter>25 units for mydriasis (in controls: 1.9%) 1 h post-administration of the test compound (test 1) or 1, 2 or 3 h post-administration of the test compound (test 2, wherein the maximum pupil diameter over the full 3 h period is reported).

ED50 (Induction of mydriasis; maximum pupil diameter >25 units over 1, 2 or 3 h post-administration, read-out: ED50 MYD Test 2): > 40 mg/kg
ED50 at 1 h (Induction of mydriasis; pupil diameter >25 units 1 h post-administration, read-out: ED50 MYD Test 1): > 10 mg/kg
melting point: 188.27 °C
Structure (SMILES): Cc1ncc(-c2cnn3c2C(=O)N(c2ccc(C(F)(F)F)c(Cl)c2)C[C@@H]3C)[nH]1 [Compound 27]
ED50 (Wiga Wistar rats): 0.2 mg/kg

— patent US10072014B2 (Janssen Pharmaceutica NV, priority 2014, dated 2018)
